Source: patent publication US5830855A, “Lipodepsipeptides as antifungal and fungicidal agents” (priority 1996, dated 1998)
Values after ≈ are worked out from the molar mass of the structure shown. Numbered stars: 1 amine (or outer) side, 2 acyl side, 3 side chain; on linkers, the order of the positions; unused ones are H or OH. Bridge positions count the residues as written; N and C are the ends. Square brackets hold non-standard residues; d marks the D form. Peptide text beside a SMILES is read from it. * marks the point of attachment. ξ: configuration not given here. ξAsp(3ξ-OH) = NC(C(=O)O)C(O)C(=O)O; X3 = O=C(C(N[*:1])C(O)CCl)[*:2]; X2 = CCCCCCCCCCCC(O)CC(=O)*; Orn = NCCC[CH](N)C(=O)O; hSer = N[CH](CCO)C(=O)O; Dab = NCC[CH](N)C(=O)O; Dhb = C/C=C(\N)C(=O)O

Key:
Format in all cases: cell-based
Candida albicans [1] = test: Broth microdilution MIC; conditions: Table 1 (MICs); Candida albicans, 20 isolates; RPMI pH 7.0, 48 hr; Ktz read at score 2, others at score 0
Experimental: (§1) Medium: Liquid RPMI 1640 (RPMI) medium with L-glutamine and without sodium bicarbonate (Sigma Chemical Co., R-6504; St. Louis, Mo.) buffered with 0.165M MOPS (34.54 g/liter) was used for in vitro antifungal tests. The medium was adjusted to pH 7.0 with 10M NaOH and filter sterilized.
(§2) Lipodepsipeptide Dilutions: All stock drug solution concentrations were at least 10-fold higher than the highest concentration tested. AmB, ketoconazole, and the test compounds (SR-E, ST-B, and SS-A) were dissolved in sterile distilled water, 0.2N HCl, and 0.001N HCl, respectively. Each stock solution was diluted to 2× the highest concentration of drug tested with RPMI. Two-fold dilutions were made with RPMI medium.
(§3) Preparation of Inoculum Suspensions: On Sabouraud dextose agar (SDA; BBL, Becton and Dickinson and Co., Cockeysville, Md.) all isolates were subcultured at least twice before use to ensure purity and viability. Candida spp. and Saccharomyces cerevisiae were grown for 24 hr at 35° C. Isolates of Cryptococcus neoformans were grown for 48 hr at 35° C. Yeast cells from at least five 1-mm-diameter colonies were suspended in 5 ml of sterile 0.85% saline. The resulting suspension was vortexed for 15 sec. The turbidity of each mixed suspension was measured at 530 nm and adjusted to 1×10^6 to 5×10^6 CFU/ml by the NCCLS spectrophotometric method described by National Committee for Clinical Laboratory Standards. 1992. Reference method for broth dilution antifungal susceptibility testing of yeasts; proposed standard, NCCLS document M27-P (ISBN 1-56238-186-5). NCCLS, Villanova. The final transmission of each yeast suspension ranged from 85-87%.
(§4) Aspergillus fumigatus and Mucor spp. were grown for 1 wk at 35° C. The dermatophytes, Microsporum spp. and Trichophyton spp., were grown for two wk at 30° C. Fungal spores were washed from the plates of all good spore formers (A. fumigatus, Mucor spp., Microsporum canis and Trichophyton spp.) by placing 5 ml of 0.85% saline with 0.2% Tween 80 on the plates and mixing with an inoculating loop. The spore/mycelium suspension was drawn off with a pipette and allowed to settle for at least 5 min. For the poor spore-forming Microsporum audouinii, the procedure was the same except the spore/mycelial suspension was homogenized with a ground glass tissue homogenizer and then allowed to settle for at least 5 min. A small amount of the supernatant was transferred to 5 ml of sterile saline and vortexed. The stock suspensions of all filamentous fungi were measured at 530 nm and adjusted to 85-87% transmission. The concentration (1×10^6 to 5×10^6 CFU/ml) was determined by hemacytometer count or plate count on SDA. All stock suspensions were diluted 1000-fold with RPMI, or 2× the final desired test inocula. The 2× inoculum was diluted 1:1 when the wells were inoculated, and the desired inoculum size was achieved.
(§5) Broth Microdilution Test: Broth microdilution tests were performed using sterile, disposable, multiwell microdilution plates (96 round U-bottom wells) (Falcon 3077; Becton and Dickinson Labware, Lincoln Park, N.J.). The drugs (2× concentrations) were dispensed into the wells of rows number 1 to 10 of the microdilution plates in 100 μl volumes from highest drug concentration to lowest drug concentration. Each well was inoculated with 100 μl of the corresponding 2× concentrated fungal suspension. The wells of row 11 contained the inoculum with drug-free media as a positive growth control and the wells of row 12 contained uninoculated-drug-free medium as a sterility control.
(§6) Incubation and Scoring of MIC: All cultures were incubated without shaking at the temperature used during subculture. Incubation times were 48 hr for Candida spp., S. cerevisiae, A. fumigatus, and Mucor spp; 72 hr for C. neoformans; and 7 days for Microsporum and Trichophyton spp. […]

Aspergillus fumigatus [2] = test: Broth microdilution MIC; conditions: Table 1 (MICs), 16 isolates, 48 hr
Experimental: as §1, §2, §3, §4, §5, §6

Candida parapsilosis [3] = test: Broth microdilution MIC; conditions: Table 1 (MICs), 2 isolates, 48 hr
Experimental: as §1, §2, §3, §4, §5, §6

Candida rugosa = test: Broth microdilution MIC; conditions: Table 1 (MICs); Candida rugosa, 2 isolates; 48 hr
Experimental: as §1, §2, §3, §4, §5, §6

Candida kefyr [4] = test: Broth microdilution MIC; conditions: Table 1 (MICs), 1 isolate, 48 hr
Experimental: as §1, §2, §3, §4, §5, §6

Trichophyton spp. [5] = test: Broth microdilution MIC; conditions: Table 1 (MICs), 3 isolates, 7 days
Experimental: as §1, §2, §3, §4, §5, §6

Cryptococcus neoformans [6] = test: Broth microdilution MIC; conditions: Table 1 (MICs); Cryptococcus neoformans, 14 isolates; 72 hr
Experimental: as §1, §2, §3, §4, §5, §6

Microsporum spp. [7] = test: Broth microdilution MIC; conditions: Table 1 (MICs), 2 isolates, 7 days
Experimental: as §1, §2, §3, §4, §5, §6

Candida krusei [8] = test: Broth microdilution MIC; conditions: Table 1 (MICs), 2 isolates, 48 hr
Experimental: as §1, §2, §3, §4, §5, §6

Candida tropicalis [9] = test: Broth microdilution MIC; conditions: Table 1 (MICs); Candida tropicalis, 2 isolates; 48 hr
Experimental: as §1, §2, §3, §4, §5, §6

Candida lusitaniae [10] = test: Broth microdilution MIC; conditions: Table 1 (MICs), 2 isolates, 48 hr
Experimental: as §1, §2, §3, §4, §5, §6

Saccharomyces cerevisiae [11] = test: Broth microdilution MIC; conditions: Table 1 (MICs), 1 strain tested more than once (control ATCC 36375), 48 hr
Experimental: as §1, §2, §3, §4, §5, §6

Candida albicans [12] = test: Minimum Fungicidal Concentration (MFC); conditions: Table 2, 20 isolates, subculture on drug-free SDA 24 hr
Experimental: as §1, §2, §3, §4, §5, §6

Aspergillus fumigatus [13] = test: Minimum Fungicidal Concentration (MFC); conditions: Table 2, 16 isolates, 48 hr
Experimental: as §1, §2, §3, §4, §5, §6

Candida parapsilosis [14] = test: Minimum Fungicidal Concentration (MFC); conditions: Table 2, 2 isolates, 24 hr
Experimental: as §1, §2, §3, §4, §5, §6

Candida kefyr [15] = test: Minimum Fungicidal Concentration (MFC); conditions: Table 2, 1 isolate, 24 hr
Experimental: as §1, §2, §3, §4, §5, §6

Trichophyton spp. [16] = test: Minimum Fungicidal Concentration (MFC); conditions: Table 2, 3 isolates, 7 d
Experimental: as §1, §2, §3, §4, §5, §6

Cryptococcus neoformans [17] = test: Minimum Fungicidal Concentration (MFC); conditions: Table 2, 14 isolates, 48 hr
Experimental: as §1, §2, §3, §4, §5, §6

Microsporum spp. [18] = test: Minimum Fungicidal Concentration (MFC); conditions: Table 2, 2 isolates, 7 d
Experimental: as §1, §2, §3, §4, §5, §6

Candida krusei [19] = test: Minimum Fungicidal Concentration (MFC); conditions: Table 2, 2 isolates, 24 hr
Experimental: as §1, §2, §3, §4, §5, §6

Candida tropicalis [20] = test: Minimum Fungicidal Concentration (MFC); conditions: Table 2, 2 isolates, 24 hr
Experimental: as §1, §2, §3, §4, §5, §6

Candida lusitaniae [21] = test: Minimum Fungicidal Concentration (MFC); conditions: Table 2, 2 isolates, 24 hr
Experimental: as §1, §2, §3, §4, §5, §6

Saccharomyces cerevisiae [22] = test: Minimum Fungicidal Concentration (MFC); conditions: Table 2, 1 strain tested more than once, 24 hr
Experimental: as §1, §2, §3, §4, §5, §6

C/C=C1\NC(=O)C(C(C)O)NC(=O)C(CCCN)NC(=O)C(CCO)NC(=O)C(CCN)NC(=O)C(CCN)NC(=O)C(NC(=O)CC(O)CCCCCCCCCCC)COC(=O)C(C(O)CCl)NC(=O)C(C(O)C(=O)O)NC1=O (centres unmarked) [SS-A, syringostatin-A] (X2-S[Dab][Dab][hSer][Orn]T[Dhb][ξAsp(3ξ-OH)][X3]; ester 1-C; configuration not given here)
MIC range (Candida albicans [1]): 2.5 to 5 µg/mL | MIC range (Aspergillus fumigatus [2]): 5 to 40 µg/mL | MIC range (Candida parapsilosis [3]): 2.5 to 5 µg/mL | MIC range (Candida rugosa): 10 to 20 µg/mL | MIC (μg/ml) range (Candida kefyr [4]): 2.5 µg/mL (≈ 2.12 µM) | MIC range (Trichophyton spp. [5]): 2.5 to 5 µg/mL | MIC range (Cryptococcus neoformans [6]): 2.5 to 10 µg/mL | MIC range (Microsporum spp. [7]): 2.5 to 5 µg/mL | MIC (μg/ml) range (Candida krusei [8]): 10 µg/mL (≈ 8.48 µM) | MIC (μg/ml) range (Candida tropicalis [9]): 2.5 to 5 µg/mL | MIC range (Candida lusitaniae [10]): 5 µg/mL (≈ 4.24 µM) | MFC (μg/ml) range (Saccharomyces cerevisiae [11]): 2.5 µg/mL (≈ 2.12 µM) | MFC (μg/ml) range (Candida albicans [12]): 2.5 to 10 µg/mL | MFC (μg/ml) range (Aspergillus fumigatus [13]): 5 to 40 µg/mL | MFC (μg/ml) range (Candida parapsilosis [14]): 2.5 to 10 µg/mL | MFC (μg/ml) range (Candida kefyr [15]): 2.5 µg/mL (≈ 2.12 µM) | MFC (μg/ml) range (Trichophyton spp. [16]): 5 µg/mL (≈ 4.24 µM) | MFC (μg/ml) range (Cryptococcus neoformans [17]): 2.5 to 10 µg/mL | MFC (μg/ml) range (Microsporum spp. [18]): 5 µg/mL (≈ 4.24 µM) | MFC (μg/ml) range (Candida krusei [19]): 10 to 20 µg/mL | MFC (μg/ml) range (Candida tropicalis [20]): 5 µg/mL (≈ 4.24 µM) | MFC (μg/ml) range (Candida lusitaniae [21]): 5 µg/mL (≈ 4.24 µM) | MFC (μg/ml) range (Saccharomyces cerevisiae [22]): 5 µg/mL (≈ 4.24 µM)
